Experimental data reported in EP1781294B1, “COMPOSITION FOR IMPROVED BIOAVAILABILITY AND ENHANCED BRAIN DELIVERY OF 5,5-DIPHENYL BARBITURIC ACID” (priority 2004, dated 2006).
Read-outs that look alike come from different tables or passages of the source.

How the values were obtained:
[1] = Pharmacokinetics of MMMDPB and DPB after oral MMMDPB or NaMMMDPB and intravenous NaMMMDPB; format: in vivo, Beagle dogs
Method: (§1) In accordance with the present invention, pharmacokinetic parameters were calculated using standard non-compartmental methods, as implemented in WinNonlin™ 4.0.1. […] The mean, SD and CV (%) were used to calculate the AUC0-t (µg.h/mL), Cmax (µg/ml) (the maximum observed concentration), Tmax (hours) (the time to reach that peak concentration) and Kel (the elimination rate constant) for each animal and each analyte.
(§2) AUC0-t was calculated using the linear trapezoidal rule, which employs an approximate integration formula. The area of each trapezoid was calculated, and the sum of all the areas of all the trapezoids yielded an estimate of the true area under the curve. (See, Gibaldi et al. Pharmacokinetics. 2nd Ed. Marcel Dekker, Inc., 1982; Yeh et al., A comparison of numerical integrating algorithms by trapezoidal, lagrange, and spline approximations. J. Pharmacokinet Biopharm. 6: 79 (1978), the disclosure of which is herein incorporated by reference.) Cmax and Tmax were then determined for each concentration vs. time profile. Elimination rate constant (Kel) was calculated using regression analyses on the natural log (In) of plasma concentration values (y) versus time (x).
Blood samples were obtained pre-dose and 0.25, 0.5, 1, 2, 3, 4, 6, 9, 12, 15, 18, and 24 hours after dosing. Venous blood (~1 mL) were drawn and collected in lithium heparin (anticoagulant). Blood samples were spun in a refrigerated centrifuge and plasma were stored at -80°C prior to analysis. […] Calibration curves were obtained using a weighted (1/C^2) least squares linear regression analysis of peak area ratio (analyte/internal standard) versus the nominal concentration of the calibration standards. Concentrations were obtained by interpolation from the run defined calibration curve. Regressions and figures were generated by PE Sciex Analyst Version 1.2 software.
Plasma samples were thawed and subjected to solid phase extraction with 2 mL acetonitrile prior to HPLC method with Tandem Mass Spectrometry Detection. Chromatographic conditions were performed as followed: […]

[2] = Pharmacokinetics of DPB after oral DPB or NaDPB and intravenous NaDPB; format: in vivo, Beagle dogs; conditions: 75 mg/kg, versus oral DPB free acid
Method: as §1, §2
We examined the delivery of DPB to the vascular compartment by administrating directly DPB and compared it with the sodium salt of DPB in dogs. […] DPB was quantified in plasma using HPLC (LLOQ=0.25 µg/mL). […]

[3] = as above; format: in vivo, Sprague-Dawley rats; conditions: 150 mg/kg; for AUC0-t for DPB greater than after oral administration of DPB / Cmax for DPB greater than after oral administration of DPB: versus oral DPB; for AUC at 24 h: rat, in vivo, analyte DPB, read-out: AU0-24
Method: as §1, §2
(§3) We examined the delivery of DPB to the vascular compartment by administrating directly DPB and compared it with the sodium salt of DPB. This study compared the pharmacokinetics of DPB after oral administration of DPB (150 mg/kg) and sodium salt of DPB (150 mg/kg) in rats. Fifty-four rats were administered DPB and sodium salt of DPB by a single oral gavage (n=54). Blood samples were obtained (approximately 0.5 mL each) were collected following each treatment from animal via the jugular vein. Blood samplings from groups of 3 rats/sex/time point were collected at various times after dosing, in order to provide the complete time-points of pre-dose, 0, 0.5, 1, 2, 3, 4, 6, 12, 18, 24, 36 and 48 hours after dosing. Each blood sample was collected into a tube containing lithium heparin and the samples were spun in a refrigerated centrifuge. The resultant plasma was stored at -80°C prior to analysis. DPB was quantified in plasma using HPLC (LLOQ=0.25 µg/mL).
We calculated AUC0-t for DPB at various times (24, 36 and 48 hours) after oral administrations of DPB and sodium salt of DPB. Table 5: AUCs at various times (24,36 and 48 hours) after Oral Administration of DPB and NaDPB in Beagle Dogs (75 mg/kg, n=28)

[4] = Brain concentration of DPB after oral DPB or NaDPB and intravenous NaDPB; format: in vivo, Sprague-Dawley rats; conditions: 150 mg/kg
Method: as §3
In this study, we measured the brain concentration of DPB. Brains were collected as soon as possible after euthanasia from each rat. They were stored in a freezer at -80°C prior to determination of DPB brain tissue concentrations. Table 6 summarizes the brain concentrations of DPB after oral administration of DPB and sodium salt of DPB in Sprague-Dawley rats.

[5] = test system: maximal electroshock seizure (MES); conditions: cited from earlier work
[6] = aqueous solution at pH 7; cited from earlier work
[7] = dog, in vivo, iv, 15 mg/kg, IV infusion, analyte DPB

For `COCN1C(=O)NC(=O)C(c2ccccc2)(c2ccccc2)C1=O` [NaMMMDPB, sodium monomethoxymethyl-5,5-diphenyt barbiturate], which AUC(0-t) ([1]; Oral, 30 mg/kg, analyte DPB) is on record?
Its AUC(0-t) is 135.10 µg·h/mL.

What about the AUC(0-t) ([1]; dog, in vivo, iv, 15 mg/kg, IV infusion, 15 mg/kg, analyte DPB, read-out: AUC0-t) of the same compound?
Its AUC(0-t) is 59.4 µg·h/mL.

And the Cmax [1, 7]?
Its Cmax is 8600 ng/mL.

What about the Tmax [1, 7] of the same compound?
Its Tmax is 3.13 h.

What about the AUC(0-t) ([1]; dog, in vivo, po, 30 mg/kg, Oral, 30 mg/kg, analyte DPB, read-out: AUC0-t) of the same compound?
Its AUC(0-t) is 135 µg·h/mL.

And the AUC(0-t) ([1]; dog, in vivo, po, 30 mg/kg, Oral, 30 mg/kg, analyte MMMDPB, read-out: AUC0-t)?
The AUC(0-t) was 29.4 µg·h/mL.

What about the Tmax ([1]; dog, in vivo, po, 30 mg/kg, analyte DPB) of the same compound?
Its Tmax is 7.28 h.

What about the Cmax ([1]; dog, in vivo, po, 30 mg/kg, analyte DPB, plasma, n=8) of the same compound?
The Cmax was 11600 ng/mL.

What about the bioavailability ([1]; dog, in vivo, Oral, 30 mg/kg, analyte DPB, read-out: F (absolute bioavailability)) of the same compound?
Its bioavailability is 315%.

What does the source list for `O=C1NC(=O)C(c2ccccc2)(c2ccccc2)C(=O)N1.[Na]` [NaDPB, sodium 5,5-diphenyl barbiturate]?
AUC0-t for DPB greater than after oral administration of DPB [2]: ~ 4 fold; Cmax for DPB greater than after oral administration of DPB [2]: ~ 3 fold; AUC0-t for DPB greater than after oral administration of DPB ([3]; Oral, female): ~ 2 fold; Cmax for DPB greater than after oral administration of DPB ([3]; Oral, female): ~ 1.5 fold; AUC0-t for DPB greater than after oral administration of DPB ([3]; Oral, male): ~ 4.5 fold; Cmax for DPB greater than after oral administration of DPB ([3]; Oral, male): ~ 2.5 fold; AUC at 24 h ([3]; iv, IV infusion, female): 3400 µg·h/mL; AUC at 24 h ([3]; iv, IV infusion, male): 3160 µg·h/mL; AUC at 24 h ([3]; po, Oral, female): 1990 µg·h/mL; AUC at 24 h ([3]; po, Oral, male): 1710 µg·h/mL

What does the source list for `O=C1NC(=O)C(c2ccccc2)(c2ccccc2)C(=O)N1` [DPB, 5,5-diphenyl barbituric acid]?
AUC at 24 h ([3]; po, Oral, female): 1210 µg·h/mL; AUC at 24 h ([3]; po, Oral, male): 623 µg·h/mL; Mean Brain Concentrations of DPB ([4]; female, 24 hr): 7.04 µg/g; Mean Brain Concentrations of DPB ([4]; female, 36 hr): 6.84 µg/g; Mean Brain Concentrations of DPB ([4]; female, 48 hr): 5.24 µg/g; Mean Brain Concentrations of DPB ([4]; male, 24 hr): 3.09 µg/g; Mean Brain Concentrations of DPB ([4]; male, 36 hr): 3.36 µg/g; Mean Brain Concentrations of DPB ([4]; male, 48 hr): BQL; protection ([5]; brain concentrations in excess of 10 µg/ml): ≥ 50%; protection ([5]; brain concentrations of DPB less than 1 µg/ml): ≤ 20%; Water solubility, less soluble as compared to phenobarbital [6]: 1/100

What does the source list for `COCN1C(=O)NC(=O)C(c2ccccc2)(c2ccccc2)C1=O` [MMMDPB, monomethoxymethyl-5,5-diphenyl barbituric acid]?
AUC(0-t) ([1]; Oral, 30 mg/kg, analyte DPB): 193.18 µg·h/mL; Tmax ([1]; dog, in vivo, Oral, 30 mg/kg, analyte DPB): 9.39 h; Cmax ([1]; dog, in vivo, Oral, 30 mg/kg, analyte DPB, plasma, n=8): 13900 ng/mL; AUC(0-t) ([1]; dog, in vivo, Oral, 30 mg/kg, analyte DPB, read-out: AUC0-t): 193 µg·h/mL
